The source of these data is ChEMBL document CHEMBL1201862, “PubChem BioAssay data set” (2004).

Structures are written as SMILES.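 Step 1: Grow cells in 96-well plates. Step 2: Expose to compound for 48 hours at 5 concentrations. Step 3: Interpolate endpoints linearly; if unreached, use highest concentration. GI50: concentration for 50% inhibition of growth.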 Active and inactive are the calls of the source. Rule as the data show it: active = GI50 up to about 1.1 µM and inactive = higher.

Holding throughout (assay): NCI tumour cell line growth inhibition, 48 h
Experiment [1] relates to SK-MEL-2.
Experiment [2] concerns OVCAR-3.
Experiment [3] concerns HCC 2998.
The subject of experiment [4] is HCT-116.
Experiment [5] deals with SR.
The test system of experiment [6] is U-251.
Experiment [7] deals with SF-295.
The test system of experiment [8] is M14.
The test system of experiment [9] is OVCAR-8.
The test system of experiment [10] is KM12.
Experiment [11] concerns PC-3.
Experiment [12] deals with NCI-H226.
Experiment [13] concerns RXF 393.
In experiment [14] the test system is MCF7.
Experiment [15] deals with UO-31.
Experiment [16] deals with NCI-H522.
Experiment [17] deals with SNB-19.
Experiment [18] deals with CAKI-1.
The test system of experiment [19] is K562.
Experiment [20] deals with LXFL 529.

For `CCN(CC)CCCNc1c2c(Cl)cc(Cl)cc2nc2nc(O)nc(C)c12`, the GI50 in [1] was 27.5 µM (inactive); in experiment [2], 77.6 µM (inactive); in [3], 21.5 µM (inactive); in experiment [4], 17.1 µM (inactive); in experiment [5], > 10 µM (inactive); in [6], 17.3 µM (inactive). The GI50 in experiment [7] is 59.8 µM (inactive); in [8], 26.4 µM (inactive); in experiment [9] it was > 10 µM (inactive); in experiment [10], 15.7 µM (inactive); in experiment [11], 30.7 µM (inactive); in experiment [12], 55.2 µM (inactive). The GI50 in [13] is > 100 µM (inactive); in experiment [14], 23.3 µM (inactive); in experiment [15], > 100 µM (inactive); in experiment [16], 21.6 µM (inactive); in experiment [17], 19.5 µM (inactive); in [18], > 100 µM (inactive). Moreover, the GI50 in [19] was 44.1 µM (inactive).
Consider `C/C(NC(=O)c1ccccc1)=C(/C(=O)c1ccccc1)[C@@H]1OC(C)(C)O[C@@H]1[C@H]1COC(C)(C)O1`, for which the GI50 in experiment [1] is 23.3 µM (inactive); in experiment [2], 32.9 µM (inactive); in experiment [3], 23.9 µM (inactive); in [4], 19.5 µM (inactive); in experiment [5], 19.5 µM (inactive); in experiment [6], 30.9 µM (inactive). In addition, the GI50 in experiment [7] is 30.9 µM (inactive); in experiment [8], 30.8 µM (inactive); in experiment [9] it was 29.2 µM (inactive); in experiment [10], 28.6 µM (inactive); in [11], 30.4 µM (inactive); in experiment [12], 33 µM (inactive). The GI50 in experiment [13] was 30.2 µM (inactive); in experiment [14] it was 40.8 µM (inactive); in experiment [15], 15.5 µM (inactive); in experiment [16] it was 17.6 µM (inactive); in experiment [17], 46.2 µM (inactive); in experiment [18] it was 29.3 µM (inactive). For the same molecule, the GI50 in experiment [19] is 20.9 µM (inactive).
With `O=C(OCc1ccccc1)N1N=NC2C3CC(OCc4ccccc4)(OCc4ccccc4)C(O3)C21` (stereo not given), the GI50 in experiment [1] was 16.3 µM (inactive); in experiment [2], 16.6 µM (inactive); in experiment [3] it was 27 µM (inactive); in [6], 40.6 µM (inactive); in [7], 22.1 µM (inactive); in experiment [8] it was 23.6 µM (inactive). The GI50 in experiment [20] was 18.8 µM (inactive); in experiment [10], 36.3 µM (inactive); in [12], 12.6 µM (inactive); in experiment [13], 9.64 µM (inactive); in [15], 4.65 µM (inactive); in experiment [18], 25.7 µM (inactive). In addition, the GI50 in [19] is 11 µM (inactive).
Take `CN(Cc1cnc2nc(N)nc(N)c2n1)c1ccc(C(=O)N[C@@H](CCS(=O)(=O)O)C(=O)O)cc1`: the GI50 was > 100 µM (inactive) in experiment [1]; > 49.5 µM (inactive) in experiment [2]; 0.61 µM (active) in experiment [3]; 0.0352 µM (active) in experiment [4]; 0.0755 µM (active) in experiment [5]; > 100 µM (inactive) in experiment [6]. Further, the GI50 is 0.0766 µM (active) in experiment [7]; 0.111 µM (active) in [8]; 21.8 µM (inactive) in experiment [9]; 1.64 µM (inactive) in experiment [10]; 0.0459 µM (active) in experiment [11]; 51.5 µM (inactive) in [12]. Further, the GI50 is 0.0611 µM (active) in [13]; 0.127 µM (active) in [14]; 0.698 µM (active) in experiment [15]; 0.574 µM (active) in experiment [16]; 0.582 µM (active) in experiment [17]; > 100 µM (inactive) in [18]. Besides, the GI50 in [19] was > 100 µM (inactive).
